Measured values taken from patent US7118895B2, “Process for producing aglycon by using diglycosidase and flavor-improved food containing the aglycon and converting agent to be used in the process” (Amano Enzyme Inc., priority 2000, dated 2006).

Test system: Crude diglycosidase
Experiment: Examination of pH in the conversion into isoflavone aglycons by diglycosidase using soybean materials
Assay type: biochemical, Penicillium multicolor IAM7153
Settings: for Decomposition efficiency of glycitin family in roasted soy flour / Decomposition efficiency of glycitin family in soymilk: 55° C.
How it was run: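 Suspensions of 50 mg roasted soy flour, soymilk, defatted soybean or concentrated soy protein were brought to pH 2 to 11 with HCl or NaOH and reacted at 55° C with crude diglycosidase (enzyme solution at 1.88 AU/mL, same pH). Ethanol-stopped samples at 0, 1, 3 and 6 h were analysed by HPLC.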

[1] = pH6.6, heat treatment of enzyme: no, reaction time 0 h
[2] = pH6.6, heat treatment of enzyme: no, reaction time 1 h
[3] = pH6.6, heat treatment of enzyme: no, reaction time 3 h
[4] = pH6.6, heat treatment of enzyme: no, reaction time 6 h
[5] = pH6.6, heat treatment of enzyme: yes, reaction time 6 h

COc1cc2c(=O)c(-c3ccc(O)cc3)coc2cc1O[C@@H]1O[C@H](CO)[C@@H](O)[C@H](O)[C@H]1O [glycitin]
Decomposition efficiency of glycitin family in concentrated soybean protein (pH1.6, heat treatment of enzyme: no, reaction time 0 h): 52.3%
Decomposition efficiency of glycitin family in concentrated soybean protein (pH1.6, heat treatment of enzyme: no, reaction time 1 h): 52.9%
Decomposition efficiency of glycitin family in concentrated soybean protein (pH1.6, heat treatment of enzyme: no, reaction time 3 h): 54.3%
Decomposition efficiency of glycitin family in concentrated soybean protein (pH1.6, heat treatment of enzyme: no, reaction time 6 h): 56.1%
Decomposition efficiency of glycitin family in concentrated soybean protein (pH1.6, heat treatment of enzyme: yes, reaction time 6 h): 57.9%
Decomposition efficiency of glycitin family in roasted soy flour (pH2, heat treatment of enzyme no, reaction time 0 h): 56.8
Decomposition efficiency of glycitin family in roasted soy flour (pH2, heat treatment of enzyme no, reaction time 1 h): 56.6
Decomposition efficiency of glycitin family in roasted soy flour (pH2, heat treatment of enzyme no, reaction time 3 h): 56.3
Decomposition efficiency of glycitin family in roasted soy flour (pH2, heat treatment of enzyme no, reaction time 6 h): 54.4
Decomposition efficiency of glycitin family in roasted soy flour (pH2, heat treatment of enzyme yes, reaction time 6 h): 54.4
Decomposition efficiency of glycitin family in soymilk (pH2.3, heat treatment of enzyme no, reaction time 0 h): 50.2
Decomposition efficiency of glycitin family in soymilk (pH2.3, heat treatment of enzyme no, reaction time 1 h): not detected
Decomposition efficiency of glycitin family in soymilk (pH2.3, heat treatment of enzyme no, reaction time 3 h): not detected
Decomposition efficiency of glycitin family in soymilk (pH2.3, heat treatment of enzyme no, reaction time 6 h): not detected
Decomposition efficiency of glycitin family in soymilk (pH2.3, heat treatment of enzyme yes, reaction time 6 h): 51.7
Decomposition efficiency of glycitin family in defatted soybean (pH2.6, heat treatment of enzyme: no, reaction time 0 h): not detected
Decomposition efficiency of glycitin family in defatted soybean (pH2.6, heat treatment of enzyme: no, reaction time 1 h): not detected
Decomposition efficiency of glycitin family in defatted soybean (pH2.6, heat treatment of enzyme: no, reaction time 3 h): not detected
Decomposition efficiency of glycitin family in defatted soybean (pH2.6, heat treatment of enzyme: no, reaction time 6 h): not detected
Decomposition efficiency of glycitin family in defatted soybean (pH2.6, heat treatment of enzyme: yes, reaction time 6 h): not detected
Decomposition efficiency of glycitin family in concentrated soybean protein (pH2.7, heat treatment of enzyme: no, reaction time 0 h): 52.3%
Decomposition efficiency of glycitin family in concentrated soybean protein (pH2.7, heat treatment of enzyme: no, reaction time 1 h): 38.0%
Decomposition efficiency of glycitin family in concentrated soybean protein (pH2.7, heat treatment of enzyme: no, reaction time 3 h): 37.2%
Decomposition efficiency of glycitin family in concentrated soybean protein (pH2.7, heat treatment of enzyme: no, reaction time 6 h): 33.7%
Decomposition efficiency of glycitin family in concentrated soybean protein (pH2.7, heat treatment of enzyme: yes, reaction time 6 h): 52.7%
Decomposition efficiency of glycitin family in roasted soy flour (pH3, heat treatment of enzyme no, reaction time 0 h): 56.8
Decomposition efficiency of glycitin family in roasted soy flour (pH3, heat treatment of enzyme no, reaction time 1 h): not detected
Decomposition efficiency of glycitin family in roasted soy flour (pH3, heat treatment of enzyme no, reaction time 3 h): not detected
Decomposition efficiency of glycitin family in roasted soy flour (pH3, heat treatment of enzyme no, reaction time 6 h): not detected
Decomposition efficiency of glycitin family in roasted soy flour (pH3, heat treatment of enzyme yes, reaction time 6 h): 55.1
Decomposition efficiency of glycitin family in defatted soybean (pH3.4, heat treatment of enzyme: no, reaction time 0 h): not detected
Decomposition efficiency of glycitin family in defatted soybean (pH3.4, heat treatment of enzyme: no, reaction time 1 h): not detected
Decomposition efficiency of glycitin family in defatted soybean (pH3.4, heat treatment of enzyme: no, reaction time 3 h): not detected
Decomposition efficiency of glycitin family in defatted soybean (pH3.4, heat treatment of enzyme: no, reaction time 6 h): not detected
Decomposition efficiency of glycitin family in defatted soybean (pH3.4, heat treatment of enzyme: yes, reaction time 6 h): not detected
Decomposition efficiency of glycitin family in soymilk (pH3.5, heat treatment of enzyme no, reaction time 0 h): 50.2
Decomposition efficiency of glycitin family in soymilk (pH3.5, heat treatment of enzyme no, reaction time 1 h): not detected
Decomposition efficiency of glycitin family in soymilk (pH3.5, heat treatment of enzyme no, reaction time 3 h): not detected
Decomposition efficiency of glycitin family in soymilk (pH3.5, heat treatment of enzyme no, reaction time 6 h): not detected
Decomposition efficiency of glycitin family in soymilk (pH3.5, heat treatment of enzyme yes, reaction time 6 h): 54.2
Decomposition efficiency of glycitin family in concentrated soybean protein (pH3.7, heat treatment of enzyme: no, reaction time 0 h): 52.4%
Decomposition efficiency of glycitin family in concentrated soybean protein (pH3.7, heat treatment of enzyme: no, reaction time 1 h): not detected
Decomposition efficiency of glycitin family in concentrated soybean protein (pH3.7, heat treatment of enzyme: no, reaction time 3 h): not detected
Decomposition efficiency of glycitin family in concentrated soybean protein (pH3.7, heat treatment of enzyme: no, reaction time 6 h): not detected
Decomposition efficiency of glycitin family in concentrated soybean protein (pH3.7, heat treatment of enzyme: yes, reaction time 6 h): 52.4%
Decomposition efficiency of glycitin family in roasted soy flour (pH4, heat treatment of enzyme no, reaction time 0 h): 56.6
Decomposition efficiency of glycitin family in roasted soy flour (pH4, heat treatment of enzyme no, reaction time 1 h): not detected
Decomposition efficiency of glycitin family in roasted soy flour (pH4, heat treatment of enzyme no, reaction time 3 h): not detected
Decomposition efficiency of glycitin family in roasted soy flour (pH4, heat treatment of enzyme no, reaction time 6 h): not detected
Decomposition efficiency of glycitin family in roasted soy flour (pH4, heat treatment of enzyme yes, reaction time 6 h): 55.1
Decomposition efficiency of glycitin family in soymilk (pH4.8, heat treatment of enzyme no, reaction time 0 h): 50.7
Decomposition efficiency of glycitin family in soymilk (pH4.8, heat treatment of enzyme no, reaction time 1 h): not detected
Decomposition efficiency of glycitin family in soymilk (pH4.8, heat treatment of enzyme no, reaction time 3 h): not detected
Decomposition efficiency of glycitin family in soymilk (pH4.8, heat treatment of enzyme no, reaction time 6 h): not detected
Decomposition efficiency of glycitin family in soymilk (pH4.8, heat treatment of enzyme yes, reaction time 6 h): 54.3
Decomposition efficiency of glycitin family in defatted soybean (pH4.8, heat treatment of enzyme: no, reaction time 0 h): not detected
Decomposition efficiency of glycitin family in defatted soybean (pH4.8, heat treatment of enzyme: no, reaction time 1 h): not detected
Decomposition efficiency of glycitin family in defatted soybean (pH4.8, heat treatment of enzyme: no, reaction time 3 h): not detected
Decomposition efficiency of glycitin family in defatted soybean (pH4.8, heat treatment of enzyme: no, reaction time 6 h): not detected
Decomposition efficiency of glycitin family in defatted soybean (pH4.8, heat treatment of enzyme: yes, reaction time 6 h): not detected
Decomposition efficiency of glycitin family in roasted soy flour (pH5, heat treatment of enzyme no, reaction time 0 h): 56.6
Decomposition efficiency of glycitin family in roasted soy flour (pH5, heat treatment of enzyme no, reaction time 1 h): not detected
Decomposition efficiency of glycitin family in roasted soy flour (pH5, heat treatment of enzyme no, reaction time 3 h): not detected
Decomposition efficiency of glycitin family in roasted soy flour (pH5, heat treatment of enzyme no, reaction time 6 h): not detected
Decomposition efficiency of glycitin family in roasted soy flour (pH5, heat treatment of enzyme yes, reaction time 6 h): 55.4
Decomposition efficiency of glycitin family in concentrated soybean protein (pH5.1, heat treatment of enzyme: no, reaction time 0 h): 52.4%
Decomposition efficiency of glycitin family in concentrated soybean protein (pH5.1, heat treatment of enzyme: no, reaction time 1 h): 4.1%
Decomposition efficiency of glycitin family in concentrated soybean protein (pH5.1, heat treatment of enzyme: no, reaction time 3 h): not detected
Decomposition efficiency of glycitin family in concentrated soybean protein (pH5.1, heat treatment of enzyme: no, reaction time 6 h): not detected
Decomposition efficiency of glycitin family in concentrated soybean protein (pH5.1, heat treatment of enzyme: yes, reaction time 6 h): 52.3%
Decomposition efficiency of glycitin family in defatted soybean (pH5.4, heat treatment of enzyme: no, reaction time 0 h): not detected
Decomposition efficiency of glycitin family in defatted soybean (pH5.4, heat treatment of enzyme: no, reaction time 1 h): not detected
Decomposition efficiency of glycitin family in defatted soybean (pH5.4, heat treatment of enzyme: no, reaction time 3 h): not detected
Decomposition efficiency of glycitin family in defatted soybean (pH5.4, heat treatment of enzyme: no, reaction time 6 h): not detected
Decomposition efficiency of glycitin family in defatted soybean (pH5.4, heat treatment of enzyme: yes, reaction time 6 h): not detected
Decomposition efficiency of glycitin family in soymilk (pH6.2, heat treatment of enzyme no, reaction time 0 h): 50.7
Decomposition efficiency of glycitin family in soymilk (pH6.2, heat treatment of enzyme no, reaction time 1 h): not detected
Decomposition efficiency of glycitin family in soymilk (pH6.2, heat treatment of enzyme no, reaction time 3 h): not detected
Decomposition efficiency of glycitin family in soymilk (pH6.2, heat treatment of enzyme no, reaction time 6 h): not detected
Decomposition efficiency of glycitin family in soymilk (pH6.2, heat treatment of enzyme yes, reaction time 6 h): 54.2
Decomposition efficiency of glycitin family in roasted soy flour (pH6.5, heat treatment of enzyme no, reaction time 0 h): 55.9
Decomposition efficiency of glycitin family in roasted soy flour (pH6.5, heat treatment of enzyme no, reaction time 1 h): not detected
Decomposition efficiency of glycitin family in roasted soy flour (pH6.5, heat treatment of enzyme no, reaction time 3 h): not detected
Decomposition efficiency of glycitin family in roasted soy flour (pH6.5, heat treatment of enzyme no, reaction time 6 h): not detected
Decomposition efficiency of glycitin family in roasted soy flour (pH6.5, heat treatment of enzyme yes, reaction time 6 h): 54.8
Decomposition efficiency of glycitin family in concentrated soybean protein [1]: 52.2%
Decomposition efficiency of glycitin family in defatted soybean [1]: not detected
Decomposition efficiency of glycitin family in concentrated soybean protein [2]: 22.6%
Decomposition efficiency of glycitin family in defatted soybean [2]: not detected
Decomposition efficiency of glycitin family in concentrated soybean protein [3]: 6.9%
Decomposition efficiency of glycitin family in defatted soybean [3]: not detected
Decomposition efficiency of glycitin family in concentrated soybean protein [4]: 2.0%
Decomposition efficiency of glycitin family in defatted soybean [4]: not detected
Decomposition efficiency of glycitin family in concentrated soybean protein [5]: 53.3%
Decomposition efficiency of glycitin family in defatted soybean [5]: not detected
Decomposition efficiency of glycitin family in soymilk (pH7.2, heat treatment of enzyme no, reaction time 0 h): 50.0
Decomposition efficiency of glycitin family in soymilk (pH7.2, heat treatment of enzyme no, reaction time 1 h): not detected
Decomposition efficiency of glycitin family in soymilk (pH7.2, heat treatment of enzyme no, reaction time 3 h): not detected
Decomposition efficiency of glycitin family in soymilk (pH7.2, heat treatment of enzyme no, reaction time 6 h): not detected
Decomposition efficiency of glycitin family in soymilk (pH7.2, heat treatment of enzyme yes, reaction time 6 h): 56.9
Decomposition efficiency of glycitin family in defatted soybean (pH7.8, heat treatment of enzyme: no, reaction time 0 h): not detected
Decomposition efficiency of glycitin family in defatted soybean (pH7.8, heat treatment of enzyme: no, reaction time 1 h): not detected
Decomposition efficiency of glycitin family in defatted soybean (pH7.8, heat treatment of enzyme: no, reaction time 3 h): not detected
Decomposition efficiency of glycitin family in defatted soybean (pH7.8, heat treatment of enzyme: no, reaction time 6 h): not detected
Decomposition efficiency of glycitin family in defatted soybean (pH7.8, heat treatment of enzyme: yes, reaction time 6 h): not detected
Decomposition efficiency of glycitin family in roasted soy flour (pH8.5, heat treatment of enzyme no, reaction time 0 h): 59.4
Decomposition efficiency of glycitin family in roasted soy flour (pH8.5, heat treatment of enzyme no, reaction time 1 h): 39.4
Decomposition efficiency of glycitin family in roasted soy flour (pH8.5, heat treatment of enzyme no, reaction time 3 h): 29.3
Decomposition efficiency of glycitin family in roasted soy flour (pH8.5, heat treatment of enzyme no, reaction time 6 h): 22.4
Decomposition efficiency of glycitin family in roasted soy flour (pH8.5, heat treatment of enzyme yes, reaction time 6 h): 59.2
Decomposition efficiency of glycitin family in concentrated soybean protein (pH8.6, heat treatment of enzyme: no, reaction time 0 h): 54.9%
Decomposition efficiency of glycitin family in concentrated soybean protein (pH8.6, heat treatment of enzyme: no, reaction time 1 h): 51.6%
Decomposition efficiency of glycitin family in concentrated soybean protein (pH8.6, heat treatment of enzyme: no, reaction time 3 h): 45.9%
Decomposition efficiency of glycitin family in concentrated soybean protein (pH8.6, heat treatment of enzyme: no, reaction time 6 h): 36.7%
Decomposition efficiency of glycitin family in concentrated soybean protein (pH8.6, heat treatment of enzyme: yes, reaction time 6 h): 56.8%
Decomposition efficiency of glycitin family in soymilk (pH11.6, heat treatment of enzyme no, reaction time 0 h): 54.3
Decomposition efficiency of glycitin family in soymilk (pH11.6, heat treatment of enzyme no, reaction time 1 h): not detected
Decomposition efficiency of glycitin family in soymilk (pH11.6, heat treatment of enzyme no, reaction time 3 h): not detected
Decomposition efficiency of glycitin family in soymilk (pH11.6, heat treatment of enzyme no, reaction time 6 h): not detected
Decomposition efficiency of glycitin family in soymilk (pH11.6, heat treatment of enzyme yes, reaction time 6 h): 59.7
